{"source": "patent US11033526B2", "about": "(priority 2015, dated 2021)", "key": {"CMVMJD135 mice [1]": {"system": "CMVMJD135 mice", "conditions": "cited from earlier work"}, "[2]": {"system": "AT3q130 animals (mutant ATXN3)", "experiment": "C. elegans assay for motility defects in AT3q130 animals", "assay_type": "in vivo", "conditions": "for mutant ATXN3-mediated neuronal dysfunction (locomotion defects): liquid culture, four day old animals", "procedure": "C. elegans assays for motility defects and aggregation. Animals (N2, AT3 WT or AT3q130) were grown in liquid culture in a 96-well plate format, with the chemical compounds, as described above. Four day old animals were transferred from the 96-well plates onto an unseeded NGM plate (equilibrated at 20° C.). Plates were allowed to dry for 1 hour before starting the assays. Motility assays were performed at 20° C. as previously described. Motor behaviour assays were run in triplicates or quadruplicates (n=3 or 4), with a total of at least 150 animals tested per genotype and/or compound. For confocal dynamic imaging and quantification of ATXN3 aggregation, live animals were immobilized with 3 mM levamisole (Sigma, USA) and mounted on a 3% agarose pad. All images were captured on an Olympus FV1000 (Japan) or Zeiss LSM 510 (Germany) confocal microscopes, under a 60× oil (NA=1.35) or 63× water (NA=1.0) objectives. Z-series imaging was acquired for all vehicle- and compound-treated animals, using a 515/514 nm laser excitation line for YFP fusion proteins. The pinhole was adjusted to 1.0 Airy unit of optical slice, and a scan was acquired every˜0.5 μm along the Z-axis. For quantification of aggregates three parameters were measured: area of aggregates/total area; number of aggregates/total area and number of aggregates. Values shown are the mean (normalized to vehicle treated control) of eight or more animals per group, unless noted otherwise."}, "CMVMJD135 mice [3]": {"system": "CMVMJD135 mice", "experiment": "Behavioural assessment of CMVMJD135 mice under chronic oral treatment", "assay_type": "in vivo, mouse", "procedure": "Transgenic mouse model and drug administration. CMVMJD135 mice were generated as described previously. DNA extraction, animal genotyping and CAG repeat size analyses were performed as previously described. The mean repeat size (±s.d.) for all mice used was 130±2. […] Only male mice were used in this study. […] Treatment was initiated at five weeks of age, one week before the expected onset of the first neurological symptoms. The trial was ended at 34 weeks of age, according to the humane endpoints established for the non-treated CMVMJD135 mice. All animal procedures were conducted in accordance with European regulations (European Union Directive 86/609/EEC). Animal facilities and the people directly involved in animal experiments (ATC, SE, ASF, SDS) were certified by the Portuguese regulatory entity-[…]. All of the protocols performed were approved by the Animal Ethics Committee of the Life and Health Sciences Research Institute, University of Minho. Behavioural assessment. […] All behavioural tests started in a pre-symptomatic stage (4 weeks) and were conducted until 30 or 34 weeks of age (FIG. 5a). […] The dragging of the paws and the stride length were evaluated with footprinting analysis. Motor behaviour was further assessed using the balance beam walk test (12 mm square and 17 mm round beams) and the motor swimming test. […]"}, "WT mice": {"system": "WT mice", "experiment": "Body weight and motor behaviour of treated WT mice", "assay_type": "in vivo, mouse", "procedure": "Transgenic mouse model and drug administration. CMVMJD135 mice were generated as described previously. DNA extraction, animal genotyping and CAG repeat size analyses were performed as previously described. The mean repeat size (±s.d.) for all mice used was 130±2. […] Only male mice were used in this study. […] Treatment was initiated at five weeks of age, one week before the expected onset of the first neurological symptoms. The trial was ended at 34 weeks of age, according to the humane endpoints established for the non-treated CMVMJD135 mice. All animal procedures were conducted in accordance with European regulations (European Union Directive 86/609/EEC). Animal facilities and the people directly involved in animal experiments (ATC, SE, ASF, SDS) were certified by the Portuguese regulatory entity-[…]. All of the protocols performed were approved by the Animal Ethics Committee of the Life and Health Sciences Research Institute, University of Minho. Behavioural assessment. […] All behavioural tests started in a pre-symptomatic stage (4 weeks) and were conducted until 30 or 34 weeks of age (FIG. 5a). Neurological tests and general health assessment were performed using the SHIRPA protocol, enriched with the hanging wire test. The dragging of the paws and the stride length were evaluated with footprinting analysis. Motor behaviour was further assessed using the balance beam walk test (12 mm square and 17 mm round beams) and the motor swimming test. All behavioural tests were performed as previously described (Silva-Fernandes, A. et al. Chronic Treatment with 17-DMAG Improves Balance and Coordination in A New Mouse Model of Machado-Joseph Disease. Neurotherapeutics (2014). Body weight was also registered for each evaluation time point."}}, "note": "pEC50: −log10 of the molar value. Read-outs that look alike come from different tables or passages of the source.", "data": [{"smiles": "CO[C@H]1/C=C\\C=C(/C)C(=O)NC2=CC(=O)C(NCCN(C)C)=C(C[C@@H](C)C[C@H](OC)[C@H](O)[C@@H](C)/C=C(\\C)[C@@H]1OC(N)=O)C2=O", "note": "[17-DMAG]", "values": [{"measurement": "delay of manifestation of motor swimming defects", "setting": "CMVMJD135 mice [1]; CMVMJD135 mice, previous findings (Silva-Fernandes 2014)", "result": "eight"}, {"measurement": "percentage of effect in motor swimming test", "setting": "CMVMJD135 mice [1]; at 30 weeks, CMVMJD135, previous findings (Silva-Fernandes 2014)", "result": 33, "unit": "%"}]}, {"smiles": "O=C1CC2(CCCC2)CC(=O)N1CCCCN1CCN(c2ncccn2)CC1", "note": "[buspirone]", "values": [{"measurement": "mutant ATXN3-mediated neuronal dysfunction (locomotion defects)", "setting": "[2]", "result": "ameliorated"}]}, {"smiles": "CN(C)CCCC1(c2ccc(F)cc2)OCc2cc(C#N)ccc21", "note": "(stereo not drawn) [citalopram]", "values": [{"measurement": "delay of manifestation of motor swimming defects", "setting": "CMVMJD135 mice [3]; CMVMJD135 mice", "result": "at least 20 weeks"}, {"measurement": "percentage of effect in motor swimming test", "setting": "CMVMJD135 mice [3]; at 30 weeks, CMVMJD135", "result": 79, "unit": "%"}, {"measurement": "behaviour of treated WT mice versus untreated littermates", "setting": "WT mice", "result": "behaved similarly"}, {"measurement": "beam walk test, WT mice", "setting": "WT mice; 8 mg/kg", "result": "No differences"}, {"measurement": "body weight of WT mice", "setting": "WT mice; 8 mg/kg", "result": "significant increase"}, {"measurement": "motor swimming test, WT mice", "setting": "WT mice; 8 mg/kg", "result": "No differences"}, {"measurement": "body weight of WT mice", "setting": "WT mice; 13 mg/kg", "result": "significant increase"}, {"measurement": "pEC50", "setting": "[2]; Caenorhabditis elegans, dose-response profile, read-out: half-maximal effective concentration (EC50), locomotion defects", "result": 4.35}]}, {"smiles": "CN1C[C@H](C(=O)N[C@]2(C)O[C@@]3(O)[C@@H]4CCCN4C(=O)[C@H](Cc4ccccc4)N3C2=O)C[C@@H]2c3cccc4[nH]cc(c34)C[C@H]21", "note": "[dihydroergotamine]", "values": [{"measurement": "mutant ATXN3-mediated neuronal dysfunction (locomotion defects)", "setting": "[2]", "result": "ameliorated"}]}, {"smiles": "CN(C)CCC[C@@]1(c2ccc(F)cc2)OCc2cc(C#N)ccc21", "note": "[escitalopram]", "values": [{"measurement": "mutant ATXN3-mediated neuronal dysfunction (locomotion defects)", "setting": "[2]", "result": "beneficial effects"}]}, {"smiles": "CN1C[C@H](CO)C=C2c3cccc4[nH]cc(c34)C[C@H]21", "note": "[lysergol]", "values": [{"measurement": "mutant ATXN3-mediated neuronal dysfunction (locomotion defects)", "setting": "[2]", "result": "ameliorated"}]}, {"smiles": "CC(C)NCC(O)COc1cccc2[nH]ccc12", "note": "(stereo not drawn) [pindolol]", "values": [{"measurement": "mutant ATXN3-mediated neuronal dysfunction (locomotion defects)", "setting": "[2]", "result": "ameliorated"}]}]}
